Results: the supplement of paper PMC7600603

Legend:
DLD1 NRF2-GOF [1] = conditions: 72 h; CellTiter-Glo viability
Method in brief: (§1)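 Cells grown in DMEM with 10% FBS were isogenic DLD1 colorectal cancer lines, NRF2 wild-type or CRISPR gain-of-function. In 384-well plates they received library compounds at 5 concentrations over a 10,000-fold range for 72 h before CellTiter-Glo readout on a Pherastar FS reader, normalised to vehicle wells and 100-μM positive-control wells. Dose-response fits used a four-parameter logistic model, from which EC50 and drug sensitivity score, a normalised area under the curve, were obtained.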

DLD1 NRF2-WT [2] = conditions: 72 h; CellTiter-Glo viability
Method in brief: as §1

DLD1 NRF2-GOF [3] = experiment: TC50 cytotoxicity; higher = less toxic; conditions: 72 h; CellTox Green cytotoxicity
Method in brief: (§2)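 TC50 and drug sensitivity score, a normalised area under the curve, were derived by logistic dose-response fits of cytotoxicity. The cells were an isogenic DLD1 colorectal cancer pair, NRF2 wild-type or CRISPR-edited, kept in DMEM with 10% FBS. Compounds were tested in 384-well plates at 5 concentrations across a 10,000-fold range for 72 h. Readings with CellTox Green on a Pherastar FS reader were normalised to vehicle wells and 100-μM positive-control wells.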

DLD1 NRF2-WT [4] = experiment: TC50 cytotoxicity; higher = less toxic; conditions: 72 h; CellTox Green cytotoxicity
Method in brief: as §2

DLD1 NRF2-GOF [5] = experiment: drug sensitivity score (DSS) cytotoxicity (DSS score); higher = more toxic; extreme values may be limits of the assay; conditions: 72 h; CellTox Green cytotoxicity
Method in brief: as §2

DLD1 NRF2-WT [6] = experiment: as above; conditions: 72 h; CellTox Green cytotoxicity
Method in brief: as §2

DLD1 NRF2-GOF [7] = experiment: drug sensitivity score (DSS) viability (DSS score); higher = more sensitive; extreme values may be limits of the assay; conditions: 72 h; CellTiter-Glo viability
Method in brief: as §1

DLD1 NRF2-WT [8] = experiment: as above; conditions: 72 h; CellTiter-Glo viability
Method in brief: as §1

EC50 viability (DLD1 NRF2-GOF [1]) [nM]	EC50 viability (DLD1 NRF2-WT [2]) [nM]	SMILES	TC50 cytotoxicity (DLD1 NRF2-GOF [3]) [nM]	TC50 cytotoxicity (DLD1 NRF2-WT [4]) [nM]	drug sensitivity score (DLD1 NRF2-GOF [5])	drug sensitivity score (DLD1 NRF2-WT [6])	drug sensitivity score (DLD1 NRF2-GOF [7])	drug sensitivity score (DLD1 NRF2-WT [8])
317	407	C/C(=C\c1csc(C)n1)[C@@H]1C[C@@H]2O[C@]2(C)CCC[C@H](C)[C@H](O)[C@@H](C)C(=O)C(C)(C)[C@@H](O)CC(=O)N1 [Ixabepilone]	> 1000	201	0.5	2.4	4.2	3.5
1190	926	CNC(=O)c1nn(C)c2c1C(C)(C)Cc1cnc(Nc3ccc(N4CCN(C)CC4)cc3)nc1-2 [Milciclib]	> 10000	> 10000	0	0.5	8.5	10.8
> 10000	> 10000	COC(=O)c1ccc2c(c1)NC(=O)/C2=C(\Nc1ccc(N(C)C(=O)CN2CCN(C)CC2)cc1)c1ccccc1 [Nintedanib]	> 10000	> 10000	0	0.5	0	0.5
110	284	CC#CC(=O)N1CCC[C@H]1c1nc(-c2ccc(C(=O)Nc3ccccn3)cc2)c2c(N)nccn12 [Acalabrutinib]	> 1000	> 1000	0	0	4	1.7
3610	1930	CC(C)(C)C[C@@H]1N[C@@H](C(=O)N[C@H]2CC[C@H](O)CC2)[C@H](c2cccc(Cl)c2F)[C@]12C(=O)Nc1cc(Cl)ccc12	> 10000	> 10000	0	0	1.5	4.4
1140	1470	CC(C)Nc1cc(-c2c[nH]c(C(=O)N[C@H](CO)c3cccc(Cl)c3)c2)c(Cl)cn1 [Ulixertinib]	> 10000	> 10000	0	0	6.3	6.1
10.1	> 10000	CC[C@@H]1CN(C(=O)NCC(F)(F)F)C[C@@H]1c1cnc2cnc3[nH]ccc3n12 [Upadacitinib]	> 10000	> 10000	0	0	10.7	0
1330	937	CCCN(CCC)C(=O)C1=Cc2ccc(-c3ccc(C(=O)N4CCCC4)cc3)cc2N=C(N)C1 [Motolimod]	> 10000	> 10000	0	0	3.6	4.4
414	> 25000	C[C@H]1C=C2C(=O)O[C@H]3CC[C@@H](C1)[C@@]23O [Galiellalactone]	> 25000	> 25000	0	0	5.1	2.8
> 2500	429	O=C(NOCCO)c1ccc2cncn2c1Nc1ccc(I)cc1F [GDC-0623]	> 2500	> 2500	0	0	0	3.3
> 25000	> 25000	COc1cc2c(cc1OCCCN1CCCC1)N=C(N)C21CCC1 [A-366]	> 25000	> 25000	0	0	0	0
> 10000	796	CNC(=O)c1cccc2cc(Oc3ccnc4cc(OCC5(N)CC5)c(OC)cc34)ccc12 [Lucitanib]	> 10000	> 10000	0	0	1.3	2.7
35	26.4	COc1ccc(-c2ccc3ncc4c(c3c2)n(-c2ccc(N3CCNCC3)c(C(F)(F)F)c2)c(=O)n4C)cn1 [NVP-BGT226]	359	338	4.1	4.4	16.2	17.5
929	795	CCCCc1nc2cc(/C=C/C(=O)NO)ccc2n1CCN(CC)CC [Pracinostat]	> 10000	1480	1.6	4	9.1	11.9
12.1	44.2	COc1cc2c(Oc3ccc4[nH]c(C)cc4c3F)ncnc2cc1OCCCN1CCCC1 [Cediranib]	> 1000	> 1000	0	0	10.2	7
> 1000	> 1000	COc1cc2nccc(Oc3ccc(NC(=O)C4(C(=O)Nc5ccc(F)cc5)CC4)cc3)c2cc1OC [Cabozantinib]	> 1000	> 1000	0	0	1.1	0
1430	75.1	Nc1nc(N)c2nc(-c3cccc(O)c3)c(-c3cccc(O)c3)nc2n1 [TG100-115]	> 10000	> 10000	0	0	3.5	7.1
1520	3600	O=C(O)c1ccc2c(c1)nc(Nc1cccc(Cl)c1)c1ccncc12 [Silmitasertib]	> 10000	> 10000	0	0.3	2.8	2.1
1720	4290	Sc1ncnc2nc[nH]c12 [Mercaptopurine]	> 10000	> 10000	0	0	6.5	2.1
26.6	19.6	CN(C)C1CCN(C(=O)c2ccc(NC(=O)Nc3ccc(-c4nc(N5CCOCC5)nc(N5CCOCC5)n4)cc3)cc2)CC1 [Gedatolisib]	> 1000	> 1000	0	0	12.6	13.5
3550	2950	CCOC(=O)CCNc1cc(N2CCc3ccccc3CC2)nc(-c2ccccn2)n1 [GSK-J4]	2800	> 100000	7.8	0	16.4	17
3.9	3.2	CC(=O)O[C@H]1C(=O)[C@@]2(C)[C@H]([C@H](OC(=O)c3ccccc3)[C@]3(O)C[C@H](OC(=O)[C@H](O)[C@@H](NC(=O)c4ccccc4)c4ccccc4)C(C)=C1C3(C)C)[C@]1(OC(C)=O)CO[C@@H]1C[C@@H]2O [Paclitaxel]	> 1000	17.4	4.7	10.5	24	24.1
4080	2460	COc1cc2ncnc(Nc3ccc(F)c(Cl)c3)c2cc1OCCCN1CCOCC1 [Gefitinib]	> 10000	> 10000	0	0	1.5	3.7
> 50000	> 50000	CCN(CC)C(=S)SSC(=S)N(CC)CC [Disulfiram(+CuCl2)]	> 50000	> 50000	0	0	0.1	0.1
3270	1710	CN1CCN(C2CCC(n3cc(-c4ccc(Oc5ccccc5)cc4)c4c(N)ncnc43)CC2)CC1 (centres undefined)	3090	3230	5.3	4.5	5.4	8.8
> 10000	> 10000	N#CC(c1ccnc(OCc2ccc(CN3CCOCC3)cc2)n1)c1nc2ccccc2s1 (centres undefined) [Bentamapimod]	> 10000	> 10000	0	0	0	0
> 1000	> 1000	C[C@@H](Oc1ccc2[nH]nc(/C=C/c3cnn(CCO)c3)c2c1)c1c(Cl)cncc1Cl	> 1000	> 1000	0	0	2	1.4
1380	4010	Nc1ncn([C@@H]2O[C@H](CO)[C@@H](O)[C@H]2O)c(=O)n1 [Azacitidine]	> 10000	> 10000	0	0	3.3	1
